Data from PubChem BioAssay AID434987 (Southern Research Specialized Biocontainment Screening …, 2010).
Calls of active or inactive are those of the source. The rule behind the calls is not given here.

Test system: M. tuberculosis H37Rv growth inhibition with meropenem
Assay: dose response, H37Rv, with and without meropenem (AID 434987);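 note: growth over 7 days at 37 °C before Alamar Blue read on day 9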
[1] = M. tuberculosis H37Rv growth inhibition, measured here: IC50 without meropenem
[2] = M. tuberculosis H37Rv growth inhibition, measured here: IC90 without meropenem
[3] = measured here: IC90 with meropenem

| SMILES | IC50 | IC50 [1] [µM] | IC90 [2] [µM] | IC90 [3] [µM] |
| --- | --- | --- | --- | --- |
| CCC(CC)NC(=O)CON=C1c2ccccc2-c2ccccc21 | > 100 µM (inactive) | > 100 | > 100 | > 100 |
| COC(=O)Cn1nc(-c2ccccc2)c2ccccc21 | > 100 µM (inactive) | > 100 | > 100 | > 100 |
| COc1ccc2oc(=N)c(C(=O)Nc3ccccc3)cc2c1 | > 100 µM (inactive) | > 100 | > 100 | > 100 |
| Cc1cc2c(N=NC(=O)C3CC3c3ccccc3)c(O)[nH]c2cc1Br (stereo not drawn) | > 100 µM (inactive) | > 100 | > 100 | > 100 |
| CCOc1ccc2nc(SC3CC(=O)N(c4cccc(OC)c4)C3=O)sc2c1 (stereo not drawn) | 23.5 µM (inactive) | 44.2 | 49.9 | 25.7 |
| Cn1nnnc1Sc1ncnc2scc(-c3ccc(C(F)(F)F)cc3)c12 | 6.75 µM (inactive) | 14.3 | 24.4 | 15 |
| O=C(Nc1nnc(-c2ccc3c(c2)OCCO3)o1)C1CCCCC1 | 16.3 µM | 55 | > 100 | > 100 |
| O=C(CCN1C(=O)c2ccccc2S1(=O)=O)Nc1ccc(Cl)cc1 | > 100 µM (inactive) | > 100 | > 100 | > 100 |
| COc1ccc(NC(=O)CCn2c(=O)c3cccn3c3ccccc32)cc1 | > 100 µM (inactive) | > 100 | > 100 | > 100 |
| CCOC(=O)CSc1nnc(NC(=O)c2cccc(S(=O)(=O)N3CCCCC3)c2)s1 | 23.8 µM (inactive) | 41 | > 100 | > 100 |
| CCOC(=O)c1cc(-c2ccccc2)sc1NC(=O)C(C)N1C(=O)NC(C)(c2ccc(Cl)cc2)C1=O (stereo not drawn) | > 100 µM (inactive) | > 100 | > 100 | > 100 |
| COC(=O)c1cc(C)[nH]c2c(C)cc3nc4ccccc4c3c12 | > 100 µM (inactive) | > 100 | > 100 | > 100 |
| N/C(=N\c1nc2ccccc2o1)NC(=O)c1ccccc1NC(=O)c1ccccc1 | > 100 µM (inactive) | > 100 | > 100 | > 100 |
| COc1cc(/C(C)=N\NC(N)=S)cc(OC)c1OC | 10.2 µM | > 100 | > 100 | 19.6 |
| CCCC(=O)Nc1ccc(NC(=S)NC(=O)c2cccs2)cc1 | > 100 µM (inactive) | > 100 | > 100 | > 100 |
| O=C1S/C(=C\C=C\c2ccco2)C(=O)N1c1ccccc1 | 14.7 µM | 43.5 | > 100 | 77.6 |
| Cc1cc(C)c2oc(-c3ccc(Cl)c(NC(=O)c4ccc(C#N)cc4F)c3)nc2c1 | > 100 µM (inactive) | > 100 | > 100 | > 100 |
| Cc1nnc(SCc2ccc(C(=O)Nc3cc(Cl)ccc3C)cc2)s1 | > 100 µM (inactive) | > 100 | > 100 | > 100 |
| CN(NC(=O)c1c(Cl)cccc1Cl)c1cccc(Cl)n1 | 7.34 µM | 62.3 | > 100 | > 100 |
| COc1ccc(NC(=O)c2cc(Br)ccc2Cl)c(OC)c1 | 23.2 µM | > 100 | > 100 | > 100 |
| Cc1ccc(C(=O)c2oc3ccccc3c2NC(=O)c2cc(-c3cc(C)ccc3O)n[nH]2)cc1 | > 100 µM (inactive) | > 100 | > 100 | > 100 |

| SMILES | IC50 | IC50 [1] [µM] | IC90 [2] [µM] | IC90 [3] [µM] |
| --- | --- | --- | --- | --- |
| COc1cccc(/C=N/NC(N)=S)c1OS(=O)(=O)c1ccccc1 | 19.2 µM | > 100 | > 100 | > 25 |
| O=C(O)CSc1ncnc2c1sc1nc(-c3ccccc3)c3c(c12)CCC3 | 12.2 µM | 61.9 | 87.4 | 14.2 |
| Cc1sc2nc(C(C)Nc3ccccc3N3CCOCC3)[nH]c(=O)c2c1C (stereo not drawn) | > 100 µM (inactive) | > 100 | > 100 | > 100 |
| CSc1ncc(Cl)c(C(=O)Nc2cccc3ccccc23)n1 | 8.49 µM | 43.5 | > 100 | > 100 |
| C=CCNC(=S)NC(=O)c1csc([N+](=O)[O-])c1 | 27.8 µM (inactive) | 49 | > 50 | > 100 |
| CCC1(c2ccc(Cl)cc2)NC(=S)N(c2ccc(C)cc2)N1 (stereo not drawn) | > 100 µM (inactive) | > 100 | > 100 | > 100 |
| COc1ccc(/C=C/C(=O)NCC(=O)N/N=C/c2cc(Br)ccc2OCc2ccccc2)cc1 | > 100 µM (inactive) | > 100 | > 100 | > 100 |
| CC(=O)c1ccccc1OCCOc1ncnc2sccc12 | > 100 µM (inactive) | > 100 | > 100 | > 100 |
| Cc1ccc(C(=O)NN2C(=O)/C(=C/c3cccn3C)SC2=S)cc1 | > 100 µM (inactive) | > 100 | > 100 | > 100 |
| CC(C)(C)c1cc(Cc2ccccc2)[nH]n1 | 28.2 µM (inactive) | 43.1 | > 100 | > 100 |
| O=c1[nH]c(/C=C/c2cccc(Br)c2)nc2ccccc12 | > 100 µM (inactive) | > 100 | > 100 | > 100 |
| CSc1ccc(/C=C/C(=O)NC23CC4CC(CC(C4)C2)C3)cc1 | 5.06 µM | 27.2 | > 100 | 16.1 |
| CC(C)C[C@H](NC(=O)c1nc[nH]c1C(=O)N1CCN(C(=O)OC(C)(C)C)CC1)C(=O)OCc1ccccc1 | 48.8 µM (inactive) | 49.4 | 56.1 | 54.9 |
| O=C(COc1ccccc1)Nc1cc(C(F)(F)F)ccc1N1CCCC1 | 46.6 µM (inactive) | > 100 | > 100 | > 100 |
| O=C(Cn1c(=O)c2cccn2c2ccccc21)NCCc1ccc(Cl)cc1 | > 100 µM (inactive) | > 100 | > 100 | > 100 |
| O=C(CCS(=O)(=O)c1ccccc1)N(CCCN1CCOCC1)c1nc2c(F)cccc2s1 | 11.3 µM | > 100 | > 100 | > 25 |
| O=c1c2ccccc2c(-c2ccccc2)nn1-c1ccccc1 | 19.7 µM | > 100 | > 100 | > 100 |
| N=C1C(c2nc3ccccc3[nH]2)=C(O)CN1c1ccc(F)cc1 | 7.73 µM | > 100 | > 100 | > 100 |
| O=C(Nc1ccccc1-c1ccccc1)C12CC3CC(CC(C3)C1)C2 | > 100 µM (inactive) | > 100 | > 100 | > 100 |
| CC/C(=N\NC(=O)c1ccc(-c2ccccc2)cc1)C12CC3CC(CC(C3)C1)C2 | 40.7 µM (inactive) | 41.1 | 47.9 | 43.7 |
| CC(=O)Nc1ccc(Nc2ncc([N+](=O)[O-])c(Nc3ccc(NC(C)=O)cc3)n2)cc1 | 0.423 µM | 2.43 | > 100 | 45.5 |
